According to PMC8728736, “A Reactivity-Based ^18F-Labeled Probe for PET Imaging of Oxidative Stress in Chemotherapy-Induced Cardiotoxicity” (Molecular Pharmaceutics, 2021):
Several values for one entry are separate records, joined by “and”; a condition that tells them apart may be missing. Equal values may be shown once.

Legend:
[1] = Serum stability at 37 °C by radio-HPLC; assay type: in vitro ADME, rat; conditions: serum, 37 °C, up to 30 min
Method: ^18F-FPBT (∼3.0 MBq) in 5% ethanol in PBS (200 μL) containing sodium ascorbate (0.01 mg/mL) was incubated with rat serum (200 μL) at 37 °C for 1 min or 1 h. Subsequently, plasma proteins were precipitated from the supernatant with ice-cold acetonitrile (1.5 mL), and samples were centrifuged (3 min, 13 000 rpm). The residual activity in the pellet was <3%. The supernatant (∼2.0 MBq, 1.0 mL) was analyzed by radio-HPLC. HPLC method: ZORBAX column (300SB-C18, semipreparative 9.4 mm × 250 mm, 5 μm) using acetonitrile and water as the mobile phase, at a flow rate of 3.0 mL/min. The following gradient was used: from 50% to 90% acetonitrile in 15 min; kept at 90% acetonitrile for 10 min; from 90 to 50% acetonitrile in 5 min.
^18F-FBPT-Ox (2–4 MBq, 50 μL in 10% EtOH/PBS) was added to serum (500 μL) and incubated at 37 °C for 5, 15, and 30 min, respectively. Plasma proteins were precipitated with a 5-sulfosalicylic acid water solution (10% w/v, 1 mL) and centrifuged (3 min, 13 000 rpm). The supernatant was removed and diluted with 500 μL of DI H2O and analyzed via radio-HPLC. A control experiment was performed where ^18F-FBPT-Ox (2 MBq, 50 μL in 10% EtOH/PBS) was added to 500 μL of PBS, incubated at 37 °C for 30 min. A 5-sulfosalicylic acid water solution (10% w/v, 1 mL) was added, thoroughly mixed, then diluted with 500 μL of DI H2O, and analyzed via radio-HPLC. […]

[2] = Post-mortem biodistribution in healthy rats; assay type: in vivo, Wistar rats; conditions: iv; for Ex vivo biodistribution, Blood / Ex vivo biodistribution, Bone / Ex vivo biodistribution, Brain / Ex vivo biodistribution, Heart / Ex vivo biodistribution, Kidney / Ex vivo biodistribution, Large Intestine / Ex vivo biodistribution, Liver / Ex vivo biodistribution, Lung / Ex vivo biodistribution, Muscle / Ex vivo biodistribution, Small Intestine / Ex vivo biodistribution, Spleen / Ex vivo biodistribution, Urine: healthy rats, mean ± SD, n = 3
Method: Wistar rats (male, 319 ± 20 g) were injected intravenously via the tail vein with either ^18F-FPBT (1.0 ± 0.4 MBq) or ^18F-FPBT-Ox (1.1 ± 0.5 MBq). The animals were sacrificed by cervical dislocation at 1, 5, or 30 min postinjection (n = 3/group). Organs and tissues of interest were harvested and weighed, and the radioactivity was measured in a gamma counter. Organ uptake was calculated as the percentage injected dose per gram of tissue mass (% ID/g). Data are reported as mean ± SD.

[3] = In vivo blood stability of 18F-FPBT-Ox; design: species or system Wistar rats; conditions: rats, plasma radio-HPLC with gamma counting, n = 2
Method: Wistar rats (male, 320 ± 20 g) were intravenously injected with ^18F-FPBT-Ox (∼15 MBq). The animals were sacrificed by cervical dislocation at 30 min postinjection (n = 2). Blood samples were collected in heparin-coated tubes. After centrifugation (5 min, 13 000 rpm), the plasma (∼1 mL) was separated. Plasma proteins were subsequently precipitated with 5-sulfosalicylic acid water solution (10% w/v, 1.5 mL) and centrifuged (5 min, 13,000 rpm). The supernatant was removed and diluted with 500 μL of DI H2O and analyzed via radio-HPLC. HPLC method: ZORBAX column (300SB-C18, semipreparative 9.4 mm × 250 mm, 5 μm). Solvent A: H2O. Solvent B: MeCN. Flow rate: 3.0 mL/min; 0–5 min, 0% of B; 5–20 min, 0–50% of B; 20–30 min, 50–0% of B. HPLC eluent was collected every minute in 30 vials separately and submitted to gamma counting. The counts per minute in each vial were plotted against the corresponding time point.

[4] = Lipophilicity, partition between 1-octanol and PBS; assay type: physicochemical; conditions: 1-octanol/PBS pH 7.4, shake-flask, n = 6
Method: The lipophilicity of ^18F-FPBT and ^18F-FPBT-Ox was determined by a conventional partition method between 1-octanol and phosphate buffered saline (PBS), pH 7.4. 1-Octanol was presaturated with PBS before use. The radiotracer (∼2 KBq) was added to a mixture of PBS (200 μL) and 1-octanol (200 μL) in a 1.5 mL Eppendorf vial (n = 6). The mixture was vigorously agitated at rt for 5 min and then centrifuged at 3000 g for 10 min. A 100 μL aliquot from each layer was drawn for measurement in a gamma counter. The LogDoct/PBS was calculated as follows: log [(cpm in the 1-octanol layer – cpm 1-octanol blank)/(cpm in the PBS layer – cpm PBS blank)].

[5] = Rat model of doxorubicin-induced cardiotoxicity: body weight and echocardiography; assay type: in vivo, Wistar rats; conditions: rats
Method: (§1) Male Wistar rats (280–300 g) were used in all experiments. Subcutaneous 7 day osmotic pumps (Alzet), containing either doxorubicin (Cambridge Bioscience, 30 mg/kg cumulative dose) or vehicle (sterile 0.9% NaCl), were inserted into rats under 2% isoflurane in 100% oxygen.
In order to assess cardiac function, all rats were subjected to a cardiac ultrasound (Vevo 770TM, VisualSonics) 1 day prior to and on day 6 of osmotic pump implantation. Rats were anesthetized with 2% isoflurane in 100% oxygen and maintained at 37 °C via a homeothermic platform and rectal thermometer. High-resolution parasternal left ventricle (LV) long axis M-mode and B-mode images were obtained using an RMV710B transducer. Images were analyzed offline using Vevo Software to determine LV function. Data are reported as mean ± SD. Statistical analysis was performed using one-way ANOVA with Tukey’s multiple comparisons test.

[6] = Ex vivo heart biomarkers of oxidative stress; assay type: in vivo, Wistar rats; conditions: hearts harvested after PET imaging, n = 4
Method: as §1
Total glutathione concentration was determined by an enzyme recycling method.[21] Lipid peroxidation was evaluated using the lipid peroxidation (MDA) assay kit from Sigma-Aldrich, which measures the colorimetric product that results from the reaction of malondialdehyde (MDA) present in the tissue with thiobarbituric (TBA) acid. Iron content was measured in isolated mitochondria and cytosolic fractions using the iron colorimetric assay kit from BioVision following the manufacture’s protocol.

[18F]CCC[n+]1c(-c2ccccc2)sc2ccccc21 [^18F-FPBT-Ox]
Serum stability (in words) [1]: excellent serum stability
Route of clearance / excretion, in words ([2]; healthy Wistar rats): quickly cleared by the kidneys and excreted through the urine
Uptake by major organs (brain, heart, lung, spleen), in words ([2]; healthy Wistar rats): significantly reduced uptake
Ex vivo biodistribution, Blood ([2]; 1 min): 0.36 ± 0.12 % ID/g
Ex vivo biodistribution, Bone ([2]; 1 min): 0.16 ± 0.14 % ID/g
Ex vivo biodistribution, Brain ([2]; 1 min): 0.23 ±0.19 % ID/g
Ex vivo biodistribution, Heart ([2]; 1 min): 0.39 ± 0.25 % ID/g
Ex vivo biodistribution, Kidney ([2]; 1 min): 4.22 ± 0.20 % ID/g
Ex vivo biodistribution, Large Intestine ([2]; 1 min): 0.12 ± 0.07 % ID/g
Ex vivo biodistribution, Liver ([2]; 1 min): 1.49 ± 0.65 % ID/g
Ex vivo biodistribution, Lung ([2]; 1 min): 0.31 ±0.05 % ID/g
Ex vivo biodistribution, Muscle ([2]; 1 min): 0.06 ± 0.02 % ID/g
Ex vivo biodistribution, Small Intestine ([2]; 1 min): 0.28 ± 0.20 % ID/g
Ex vivo biodistribution, Spleen ([2]; 1 min): 0.26 ± 0.13 % ID/g
Ex vivo biodistribution, Urine ([2]; 1 min): 1.39 ± 1.21 % ID/g
Ex vivo biodistribution, Blood ([2]; 5 min): 0.15 ± 0.08 % ID/g
Ex vivo biodistribution, Bone ([2]; 5 min): 0.09 ± 0.03 % ID/g
Ex vivo biodistribution, Brain ([2]; 5 min): 0.14 ± 0.11 % ID/g
Ex vivo biodistribution, Heart ([2]; 5 min): 0.18 ± 0.06 % ID/g
Ex vivo biodistribution, Kidney ([2]; 5 min): 1.15 ± 0.75 % ID/g
Ex vivo biodistribution, Large Intestine ([2]; 5 min): 0.10 ± 0.04 % ID/g
Ex vivo biodistribution, Liver ([2]; 5 min): 1.17 ± 0.37 % ID/g
Ex vivo biodistribution, Lung ([2]; 5 min): 0.21 ± 0.05 % ID/g
Ex vivo biodistribution, Muscle ([2]; 5 min): 0.05 ± 0.02 % ID/g
Ex vivo biodistribution, Small Intestine ([2]; 5 min): 1.59 ± 1.93 % ID/g
Ex vivo biodistribution, Spleen ([2]; 5 min): 0.11 ± 0.04 % ID/g
Ex vivo biodistribution, Urine ([2]; 5 min): 9.29 ± 3.02 % ID/g
Ex vivo biodistribution, Blood ([2]; 30 min): 0.09 ± 0.04 % ID/g
Ex vivo biodistribution, Bone ([2]; 30 min): 0.12 ± 0.06 % ID/g
Ex vivo biodistribution, Brain ([2]; 30 min): 0.07 ± 0.07 % ID/g
Ex vivo biodistribution, Heart ([2]; 30 min): 0.11 ± 0.06 % ID/g
Ex vivo biodistribution, Kidney ([2]; 30 min): 0.59 ± 0.31 % ID/g
Ex vivo biodistribution, Large Intestine ([2]; 30 min): 0.05 ± 0.04 % ID/g
Ex vivo biodistribution, Liver ([2]; 30 min): 0.90 ± 0.59 % ID/g
Ex vivo biodistribution, Lung ([2]; 30 min): 0.12 ± 0.07 % ID/g
Ex vivo biodistribution, Muscle ([2]; 30 min): 0.03 ± 0.00 % ID/g
Ex vivo biodistribution, Small Intestine ([2]; 30 min): 0.63 ± 0.64 % ID/g
Ex vivo biodistribution, Spleen ([2]; 30 min): 0.07 ± 0.05 % ID/g
Ex vivo biodistribution, Urine ([2]; 30 min): 15.80 ± 12.98 % ID/g
Time stable in blood post IV injection [3]: at least 30 min
LogD [4]: −1.00 ± 0.04 and ~−1

COc1cccc2c1C(=O)c1c(O)c3c(c(O)c1C2=O)C[C@@](O)(C(=O)CO)C[C@@H]3O[C@H]1C[C@H](N)[C@H](O)[C@H](C)O1 [doxorubicin]
Body weight decrease ([5]; doxorubicin 30 mg/kg cumulative dose by 7 day osmotic pump, implantation to day 7, n = 6): 16.2 ± 8.9%
Reduction of left ventricular ejection fraction at day 6 compared to baseline at day 0 ([5]; doxorubicin 30 mg/kg cumulative dose by osmotic pump, echocardiography): 15%
Left ventricular ejection fraction compared to time-matched vehicle controls at day 6 ([5]; echocardiography): cannot detect the statistical difference
Cardiac oxidative stress biomarkers (glutathione, maldonaldehyde, mitochondrial iron, cytosolic iron) compared to saline control group [6]: marginally higher
